The values that follow are results of earlier work, collected in patent US20200206299A1, “INHIBITORS OF BETA-ARRESTIN-NEUROKININ 1 RECEPTOR INTERACTIONS FOR THE TREATMENT OF PAIN” (priority 2016, published 2020).

The data set relates to capsaicin-evoked hyperalgesia. The note with it: intrathecal MEK inhibitor; Ji et al. 2002 is cited.

Consider `N#CC(=C(/N)Sc1ccccc1N)/C(C#N)=C(\N)Sc1ccccc1N` [U0126], for which the capsaicin-evoked hyperalgesia result is “inhibited”.
